Laboratory results as given in patent publication US6696424B1, “Cytofectin dimers and methods of use thereof” (Vical Incorporated, priority 1999, dated 2004).

Test system: B16F10 melanoma tumors
Experiment: Subcutaneous melanoma tumor model, in vivo transfection with CAT reporter gene
Design: species or system BALB/C mice
Details: cytofectin/CAT plasmid complex injected into tumor, tumors collected after forty-eight hours; averages; FIG. 3
Protocol: A) General Subcutaneous Tumor Transfection Assay. Tumors are prepared by injecting a suspension of tumor cells subcutaneously on the side of a mouse strain compatible with the specific tumor type. The tumors are periodically measured. Once the tumors reach a size suitable for injection, the tumor volume is approximated based on the measured diameter assuming a spherical tumor. A complex of the cytofectin compound to be evaluated with a plasmid encoding a reporter gene (e.g., CAT) in a volume of saline equal to the volume of the tumor to be treated is then injected at a flow rate optimized for the particular tumor type. After an appropriate time, the tumors are collected, frozen and then ground up. The reporter gene product is subsequently extracted and the quantity expressed is determined using extraction and assay conditions appropriate for the particular gene product. A variety of tumor types may be evaluated using this general technique. […]
B) Subcutaneous Melanoma Tumor Model. […] When the tumors reached 4.5 mm to 7.0 mm in diameter, the volume of each individual tumor was calculated by measuring the diameter of the tumor and assuming a spherical tumor. For each individual tumor, a volume of the cytofectin/CAT plasmid complex in saline equivalent to the calculated volume of the tumor was injected into the tumor at a rate of 2 ml/min. […] CAT activity was quantitated as described below. […]

| Structure (SMILES) | CAT activity (relative transgene expression vs pDNA transfection alone) |
| --- | --- |
| CCCCCCCCCCCCCCOCC(C[N+](C)(C)CCCNC(=O)NCCCCCCNC(=O)NCCC[N+](C)(C)CC(COCCCCCCCCCCCCCC)OCCCCCCCCCCCCCC)OCCCCCCCCCCCCCC (centres unmarked) [SHGU-DMRIE] | greater activity than the naked DNA (pDNA) control |
| CCCCCCCCCCCCCCOCC(C[N+](C)(C)CCCNC(=O)NCCCCNC(=O)NCCC[N+](C)(C)CC(COCCCCCCCCCCCCCC)OCCCCCCCCCCCCCC)OCCCCCCCCCCCCCC (centres unmarked) [SBGU-DMRIE] | greater activity than the naked DNA (pDNA) control |
